Columns and labels:
human JAK1 = target: T1, human JAK1 (Homo sapiens, UniProt P23458); experiment: In vitro JAK kinase assay (Example G, HTRF), JAK1; format: biochemical; conditions: 1 mM ATP
T1 construct: human JAK1 (a.a. 837-1142); made in house; host or cells: insect cells (baculovirus)

human JAK2 = target: T2, human JAK2 (Homo sapiens, UniProt O60674); experiment: In vitro JAK kinase assay (Example G, HTRF), JAK2; format: biochemical; conditions: ratio of IC50s JAK2 over JAK1, 1 mM ATP
T2 construct: JAK2 (a.a. 828-1132); made in house; host or cells: insect cells (baculovirus)
T2 sequence (O60674 828-1132): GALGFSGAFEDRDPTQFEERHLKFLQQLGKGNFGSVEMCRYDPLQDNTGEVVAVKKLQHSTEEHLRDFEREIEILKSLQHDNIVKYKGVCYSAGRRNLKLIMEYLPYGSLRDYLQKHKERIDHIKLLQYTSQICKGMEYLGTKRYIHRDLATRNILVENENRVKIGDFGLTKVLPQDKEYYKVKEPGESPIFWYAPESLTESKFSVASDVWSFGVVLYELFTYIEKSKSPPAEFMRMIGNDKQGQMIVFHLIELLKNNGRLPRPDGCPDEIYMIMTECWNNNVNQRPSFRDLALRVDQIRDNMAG

T1 sequence (P23458 849-1154): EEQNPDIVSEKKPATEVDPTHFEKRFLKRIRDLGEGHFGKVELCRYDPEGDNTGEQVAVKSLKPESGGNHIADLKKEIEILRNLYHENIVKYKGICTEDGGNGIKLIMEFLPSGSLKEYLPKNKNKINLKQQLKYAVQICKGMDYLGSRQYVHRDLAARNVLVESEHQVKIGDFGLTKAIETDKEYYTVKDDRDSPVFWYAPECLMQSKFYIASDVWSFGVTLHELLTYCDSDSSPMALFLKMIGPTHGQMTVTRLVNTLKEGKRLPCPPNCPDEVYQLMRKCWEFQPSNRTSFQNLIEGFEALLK

IC50 (human JAK1) [nM] | JAK2/JAK1 (human JAK2) | SMILES
< 10 | >10 | CCNCc1cc(O[C@H]2CC[C@@H](N3CC(CC#N)(n4cc(-c5ncnc6[nH]ccc56)cn4)C3)CC2)nc(C(F)(F)F)c1 [Compound 19, {1-(cis-4-{[4-[(ethylamino)methyl]-6-(trifluoromethyl)pyridin-2-yl]oxy}cyclohexyl)-3-[4-(7H-pyrrolo[2,3-d]pyrimidin-4-yl)-1H-pyrazol-1-yl]azetidin-3-yl}acetonitrile]
< 10 | >10 | N#CCC(CN1CCN(C(=O)c2ccc(C#N)cc2F)CC1)n1ccc(-c2ncnc3[nH]ccc23)c1 (centres unmarked) [Compound 6, 4-[(4-{3-cyano-2-[3-(7H-pyrrolo[2,3-d]pyrimidin-4-yl)-1H-pyrrol-1-yl]propyl}piperazin-1-yl)carbonyl]-3-fluorobenzonitrile]
< 10 | >10 | C[C@H](O)CNCc1cc(OC2CCN([C@H]3C[C@](CC#N)(n4cc(-c5ncnc6[nH]ccc56)cn4)C3)CC2)nc(C(F)(F)F)c1 [Compound 25, {trans-3-(4-{[4-({[(2S)-2-hydroxypropyl]amino}methyl)-6-(trifluoromethyl)pyridin-2-yl]oxy}piperidin-1-yl)-1-[4-(7H-pyrrolo[2,3-d]pyrimidin-4-yl)-1H-pyrazol-1-yl]cyclobutyl}acetonitrile]
< 10 | >10 | N#CCC(CN1CCN(C(=O)c2ccc(C#N)cc2F)CC1)n1cc(-c2ncnc3[nH]ccc23)cn1 (centres unmarked) [Compound 5, 4-[(4-{3-cyano-2-[4-(7H-pyrrolo[2,3-d]pyrimidin-4-yl)-1H-pyrazol-1-yl]propyl}piperazin-1-yl)carbonyl]-3-fluorobenzonitrile]
< 10 | >10 | C[C@@H](CO)NCc1cc(OC2CCN([C@H]3C[C@](CC#N)(n4cc(-c5ncnc6[nH]ccc56)cn4)C3)CC2)nc(C(F)(F)F)c1 [Compound 23, {trans-3-(4-{[4-({[(1S)-2-hydroxy-1-methylethyl]amino}methyl)-6-(trifluoromethyl)pyridin-2-yl]oxy}piperidin-1-yl)-1-[4-(7H-pyrrolo[2,3-d]pyrimidin-4-yl)-1H-pyrazol-1-yl]cyclobutyl}acetonitrile]
< 10 | >10 | N#CCC1(n2cc(-c3ncnc4[nH]ccc34)cn2)CN([C@H]2CC[C@@H](Oc3cc(CN4CC[C@@H](O)C4)cc(C(F)(F)F)n3)CC2)C1 [Compound 21, {1-(cis-4-{[4-{[(3R)-3-hydroxypyrrolidin-1-yl]methyl}-6-(trifluoromethyl)pyridin-2-yl]oxy}cyclohexyl)-3-[4-(7H-pyrrolo[2,3-d]pyrimidin-4-yl)-1H-pyrazol-1-yl]azetidin-3-yl}acetonitrile]
< 10 | >10 | N#CCC(C1CCN(c2nc3cccnc3o2)C1)n1cc(-c2ncnc3[nH]ccc23)cn1 (centres unmarked) [Compound 4, 3-(1-[1,3]oxazolo[5,4-b]pyridin-2-ylpyrrolidin-3-yl)-3-[4-(7H-pyrrolo[2,3-d]pyrimidin-4-yl)-1H-pyrazol-1-yl]propanenitrile]
< 10 | >10 | C[C@@H](O)CNCc1cc(OC2CCN([C@H]3C[C@](CC#N)(n4cc(-c5ncnc6[nH]ccc56)cn4)C3)CC2)nc(C(F)(F)F)c1 [Compound 24, {trans-3-(4-{[4-({[(2R)-2-hydroxypropyl]amino}methyl)-6-(trifluoromethyl)pyridin-2-yl]oxy}piperidin-1-yl)1-[4-(7H-pyrrolo[2,3-d]pyrimidin-4-yl)-1H-pyrazol-1-yl]cyclobutyl}acetonitrile]
< 10 | >10 | N#CCC1(n2cc(-c3ncnc4[nH]ccc34)cn2)CN(C2CCN(C(=O)c3ccnc(C(F)(F)F)n3)CC2)C1 [Compound 9, [3-[4-(7H-pyrrolo[2,3-d]pyrimidin-4-yl)-1H-pyrazol-1-yl]-1-(1-{[2-(trifluoromethyl)pyrimidin-4-yl]carbonyl}piperidin-4-yl)azetidin-3-yl]acetonitrile]
< 10 | >10 | C[C@H](NC(=O)c1cc(F)c(N2CC(CC#N)(n3cc(-c4ncnc5[nH]ccc45)cn3)C2)cc1F)C(F)(F)F [Compound 16, 4-{3-(cyanomethyl)-3-[4-(7H-pyrrolo[2,3-d]pyrimidin-4-yl)-1H-pyrazol-1-yl]azetidin-1-yl}-2,5-difluoro-N-[(1S)-2,2,2-trifluoro-1-methylethyl]benzamide]
< 10 | >10 | N#CC[C@]1(n2cc(-c3ncnc4[nH]ccc34)cn2)C[C@H](N2CCC(Oc3cc(CN4CC(O)C4)cc(C(F)(F)F)n3)CC2)C1 [Compound 11, {trans-3-(4-{[4-[(3-hydroxyazetidin-1-yl)methyl]-6-(trifluoromethyl)pyridin-2-yl]oxy}piperidin-1-yl)-1-[4-(7H-pyrrolo[2,3-d]pyrimidin-4-yl)-1H-pyrazol-1-yl]cyclobutyl}acetonitrile]
< 10 | >10 | N#CCC(C1CCN(c2cccc(Cl)n2)C1)n1cc(-c2ncnc3[nH]ccc23)cn1 (single isomer, unassigned) [Compound 3, 3-[1-(6-chloropyridin-2-yl)pyrrolidin-3-yl]-3-[4-(7H-pyrrolo[2,3-d]pyrimidin-4-yl)-1H-pyrazol-1-yl]propanenitrile]
< 100 | >10 | C[C@@H](O)c1nc2cnc3ccsc3c2n1[C@H]1CC[C@H](CC#N)OC1 [Compound 1, ((2R,5S)-5-{2-[(1R)-1-hydroxyethyl]-1H-imidazo[4,5-d]thieno[3,2-b]pyridin-1-yl}tetrahydro-2H-pyran-2-yl)acetonitrile]
< 10 | >10 | N#CC[C@]1(n2cc(-c3ncnc4[nH]ccc34)cn2)C[C@H](N2CCC(Oc3cc(CCO)cc(C(F)(F)F)n3)CC2)C1 [Compound 26, {trans-3-(4-{[4-(2-hydroxyethyl)-6-(trifluoromethyl)pyridin-2-yl]oxy}piperidin-1-yl)-1-[4-(7H-pyrrolo[2,3-d]pyrimidin-4-yl)-1H-pyrazol-1-yl]cyclobutyl}acetonitrile]
< 10 | >10 | CC(C)(O)c1cc(O[C@H]2CC[C@@H](N3CC(CC#N)(n4cc(-c5ncnc6[nH]ccc56)cn4)C3)CC2)nc(C(F)(F)F)c1 [Compound 20, {1-(cis-4-{[4-(1-hydroxy-1-methylethyl)-6-(trifluoromethyl)pyridin-2-yl]oxy}cyclohexyl)-3-[4-(7H-pyrrolo[2,3-d]pyrimidin-4-yl)-1H-pyrazol-1-yl]azetidin-3-yl}acetonitrile]
< 10 | >10 | N#CC[C@]1(n2cc(-c3ncnc4[nH]ccc34)cn2)C[C@H](N2CCC(Oc3cc(CN4CCC[C@@H]4CO)cc(C(F)(F)F)n3)CC2)C1 [Compound 13, {trans-3-(4-{[4-{[(2R)-2-(hydroxymethyl)pyrrolidin-1-yl]methyl}-6-(trifluoromethyl)pyridin-2-yl]oxy}piperidin-1-yl)-1-[4-(7H-pyrrolo[2,3-d]pyrimidin-4-yl)-1H-pyrazol-1-yl]cyclobutyl}acetonitrile]
< 10 | >10 | N#CCC1(n2cc(-c3ncnc4[nH]ccc34)cn2)CN([C@H]2CC[C@@H](Oc3cc(CCO)nc(C(F)(F)F)n3)CC2)C1 [Compound 18, {1-(cis-4-{[6-(2-hydroxyethyl)-2-(trifluoromethyl)pyrimidin-4-yl]oxy}cyclohexyl)-3-[4-(7H-pyrrolo[2,3-d]pyrimidin-4-yl)-1H-pyrazol-1-yl]azetidin-3-yl}acetonitrile]
< 10 | >10 | N#CCC1(n2cc(-c3ncnc4[nH]ccc34)cn2)CN(C2CCN(C(=O)c3ccnc(C(F)(F)F)c3F)CC2)C1 [Compound 7, {1-{1-[3-Fluoro-2-(trifluoromethyl)isonicotinoyl]piperidin-4-yl}-3-[4-(7H-pyrrolo[2,3-d]pyrimidin-4-yl)-1H-pyrazol-1-yl]azetidin-3-yl}acetonitrile]
< 10 | >10 | N#CCC1(n2cc(-c3ncnc4[nH]ccc34)cn2)CN([C@H]2CC[C@@H](Oc3cc(CN4CC[C@H](O)C4)cc(C(F)(F)F)n3)CC2)C1 [Compound 22, {1-(cis-4-{[4-{[(3S)-3-hydroxypyrrolidin-1-yl]methyl}-6-(trifluoromethyl)pyridin-2-yl]oxy}cyclohexyl)-3-[4-(7H-pyrrolo[2,3-d]pyrimidin-4-yl)-1H-pyrazol-1-yl]azetidin-3-yl}acetonitrile]
< 10 | >10 | N#CC[C@]1(n2cc(-c3ncnc4[nH]ccc34)cn2)C[C@H](N2CCC(Oc3cc(CN4CCC[C@H]4CO)cc(C(F)(F)F)n3)CC2)C1 [Compound 12, {trans-3-(4-{[4-{[(2S)-2-(hydroxymethyl)pyrrolidin-1-yl]methyl}-6-(trifluoromethyl)pyridin-2-yl]oxy}piperidin-1-yl)-1-[4-(7H-pyrrolo[2,3-d]pyrimidin-4-yl)-1H-pyrazol-1-yl]cyclobutyl}acetonitrile]
< 10 | >10 | N#CC[C@]1(n2cc(-c3ncnc4[nH]ccc34)cn2)C[C@H](N2CCN(C(=O)c3ccnc(C(F)(F)F)n3)CC2)C1 [Compound 10, [trans-1-[4-(7H-pyrrolo[2,3-d]pyrimidin-4-yl)-1H-pyrazol-1-yl]-3-(4-{[2-(trifluoromethyl)pyrimidin-4-yl]carbonyl}piperazin-1-yl)cyclobutyl]acetonitrile]
< 10 | >10 | N#CCC1(n2cc(-c3ncnc4[nH]ccc34)cn2)CN(C2CCN(C(=O)Nc3ccc(F)cc3C(F)(F)F)CC2)C1 [Compound 8, 4-{3-(Cyanomethyl)-3-[4-(7H-pyrrolo[2,3-d]pyrimidin-4-yl)-1H-pyrazol-1-yl]azetidin-1-yl}-N-[4-fluoro-2-(trifluoromethyl)phenyl]piperidine-1-carboxamide]
